Experimental data as given in publication PMC6894747 (PLoS Pathogens, 2019).
Where two headings read alike, the source gives them in different places. Positions of bridges follow the written chain, without caps; N, C: chain ends. Residues, ends and D or L forms follow the SMILES beside them. No end group written: not given here.

What was measured:
[1] = rhesus monkeys, 10 mg/kg i.v. daily for one month, within two months; indirect ELISA
Protocol: After incubation at 4 °C for 2 h and washes with PBS-T for three times, we added the serially 10-fold diluted plasma of the PBS- or peptide-treated rhesus monkeys. Goat Anti-Monkey IgG H&L (HRP) (Abcam) were incubated for 1 h at 37 °C and washed for five times.

in vivo = assay: in vivo
Protocol: The samples were then centrifuged (3200 rpm for 10 min at 4 °C), and plasma was aliquoted and kept frozen until analysis.
After being coated, the plate was washed three times with PBS-T to remove the excess antibody. The remaining active sites on the plate were blocked by the addition of 150 μL 2% milk for 2 h at 37 °C. […] Then, HRP-labeled rabbit anti-mouse IgG (Sigma, USA) incubated at 37 °C for 1 h. The substrate TMB reagent were added and incubated for 5 min, resulting in the development of a blue color. Color development was stopped by the stop solution (1M H2SO4 50 μL/well). Absorbance at 450 nm was determined by an ELISA reader (Ultra 384, Tecan; Tecan, Research Triangle Park, NC).

M7 cells = assay: Cytotoxicity assay (CCK-8); assay type: cell-based; details: up to 5 μM, 48 h, triplicate
Protocol: (§1) The potential cytotoxicity of peptides on MT-2 and M7 cells was measured by using the Cell Counting Kit-8 according to the manufacturer’s instructions (CCK-8, Dojindo Laboratories, Kumamoto, Japan). Briefly, 100 μL of a peptide at graded concentrations were added to equal volumes of cells (10^4 cells/well) in a 96-well plate. Cell viability was evaluated using the CCK-8 kit after incubation at 37 °C for 2 days. Incubation with CCK-8 reagents at 37 °C for another 4 h, the absorbance at 450 nm was measured with an ELISA reader, and the percentage of cytotoxicity was calculated.

MT-2 cells = assay: Cytotoxicity assay (CCK-8); assay type: cell-based; details: for in vitro cytotoxicity to MT-2 cells: up to 5 μM, 48 h, CCK-8, triplicate
Protocol: as §1

HIV-1 JR-CSF = assay: Prophylactic efficacy against HIV-1 challenge in humanized mice; assay type: in vivo, humanized NRG (NRG-hu HSC) mice; details: for cell-associated HIV-1 DNA and RNA in spleen and bone marrow: day 28 post-infection, real-time PCR; for mice HIV-1 viremia-positive at 7 dpi / mice with viremia at 14 dpi / viral load at 7 dpi: humanized mice; for mice HIV-1 viremia-positive at 7 dpi: 20 mg/kg i.p. 2 h before challenge, 6 h post-infection and daily for 3 days, CP24 n = 8, IBP-CP24 n = 7; for mice with viremia at 14 dpi / viral load at 7 dpi: 20 mg/kg i.p. prophylactic regimen; for viral load at 7 dpi: plasma HIV-1 RNA
Protocol: The mice were challenged with HIV-1 JR-CSF (5 ng p24/mouse) through retro-orbital injection at 2 h post-treatment. Then the mice were treated with PBS or peptides at 6 hours post-infection and once every day for 3 consecutive days. Plasma samples were obtained for viral load determination at days 0, 7, 14, 21 and 28 post-infection.
HIV-1 genomic RNA was purified from plasma by using the QIAamp Viral RNA Mini Kit. The RNA was reverse-transcribed and quantitatively detected by real-time PCR with the TaqMan Fast Virus 1-Step PCR kit (Thermo Fisher Scientific). We used the forward primer 5’-[…]-3’ and the reverse primer 5’-[…]-3’ to detect the HIV gag gene. The probe (FAM-[…]-QSY7) used for detection was ordered from Applied Biosystems, and the reactions were set up following the manufacturer’s guidelines and were run on the QuantStudio 6 Flex PCR system (Applied Biosystems). The limit of detection of each real-time PCR was 4 copies per reaction. Accordingly, owing to the relatively small volume of plasma in mice (about 50–100 μL total blood), the limit of detection was 400 copies/mL plasma. The copy numbers below the detectable limit were set as 1. Triplicate reactions were performed for each sample.
To evaluate cell-associated HIV-1 DNA, total DNA was extracted from mouse spleen and bone marrow cells using the DNeasy Mini Kit (Qiagen). HIV-1 DNA was quantified by real-time PCR. DNA from serial dilutions of ACH2 cells, which contain 1 copy of the HIV genome in each cell, was used to create a standard curve.
To detect cell-associated HIV-1 RNA, total cell RNA was extracted from mouse spleen and bone marrow cells using the RNeasy Plus Mini Kit (Qiagen). The RNA was reverse-transcribed to cDNA and then quantified by real-time PCR, as described above. DNA from serial dilutions of ACH2 cells was used to generate a standard curve.

[2] = tested on: H9/HIV-1IIIB target cells with PBMC effector cells; assay: ADCC assay, 10E8-mediated lysis; assay type: cell-based, human; details: peptide up to 20 μM added to 10E8
Protocol: H9/HIV-1IIIB cells expressing HIV-1 Env (2.5 × 10^4 cells) as the target cells were seeded into a 96-well plate (25 μL/well), and the mixture of a serially diluted inhibitors and 10E8 (1.5 μg/mL) was added to the culture plate. PBMC (AllCells) as effector cells (2.5 × 10^4 cells in 25 μL) were cocultured with the mixture-treated target cells at 37 °C overnight, and the […] activity was measured using the CytoTox-ONE Homogeneous Membrane Integrity Assay (Promega).

[3] = tested on: HIV-1 Bal (subtype B, R5); assay type: cell-based; details: for IC50: Bal (subtype B, R5)
Protocol: Briefly, 1×10^5/mL MT-2 or M7 cells were infected with different HIV-1 viruses at 100 TCID50 (50% tissue culture infective dose) in the presence or absence of peptides at graded concentrations overnight. Then the culture supernatants were replaced with equal volume of fresh medium. On the fourth day post-infection, supernatants were collected and mixed with equal volume of 5% Triton X-100. […] The IC50 values were calculated with CalcuSyn software [35–36], and inhibition curves of best fit were generated with GraphPad Prism.

ICR mice = assay: Safety of IBP-CP24 for ICR mice; assay type: in vivo; details: for serum ALT level / serum creatinine level: i.p., CP24 10 mg/kg, IBP-CP24 10 or 100 mg/kg, before and 5 h, 1, 4 days post-injection
Protocol: Body weight changes of mice at different time points were monitored. Creatinine and ALT in the sera were measured by using the creatinine and ALT assay kits (NJJCBIO, Nanjing, China) before injection and 5 h, 1, and 4 days post-injection, respectively. All mice were sacrificed at day 15 post-injection, and the livers and kidneys were collected for haematoxylin and eosin (H&E) staining.

rhesus monkey IgG = assay: Isothermal titration calorimetry (ITC); assay type: binding; details: 300 μM peptide injected into 30 μM rhesus monkey IgG, PBS, 25 °C
Protocol: ITC assay was performed with an ITC microcalorimeter instrument (NANO ITC, TA Instruments, Lindon, UT) as described previously. In brief, 300 μM peptides were dissolved in PBS and injected into the chamber containing 30 μM of rhesus monkey IgG. The experiments were carried out at 25 °C. The time between injections was 300 s, and the stirring speed was 300 rpm. The heats of dilution were determined in control experiments by injecting peptides into PBS and then subtracting from the heats produced in the corresponding peptide-IgG binding experiments. Data acquisition and analysis were performed using the Origin software, and the best fitting curves were generated with GraphPad Prism.

[4] = rhesus monkeys; for t1/2: plasma, 10 mg/kg i.v., active peptide concentration estimated from ex vivo anti-HIV-1 IIIB activity (DF-IC50) and in vitro IC50, MODFIT; for AUC(0-t) / Cmax / MRT 0-inf_obs / Tmax: concentration estimated from ex vivo anti-HIV-1 activity
[5] = rhesus monkey, plasma, iv, 10 mg/kg

| Compound | peptide-specific antibodies in plasma [1] | AUC(0-t) (in vivo; [5]) | Cmax (in vivo; [5]) | MRT (in vivo; [5]) | half-life (in vivo; [5]) | in vitro cytotoxicity to M7 cells (M7 cells) | in vitro cytotoxicity to MT-2 cells (MT-2 cells) | cell-associated HIV-1 DNA and RNA in spleen and bone marrow (HIV-1 JR-CSF) | mice HIV-1 viremia-positive at 7 dpi (HIV-1 JR-CSF) | mice with viremia at 14 dpi (HIV-1 JR-CSF) | viral load at 7 dpi (HIV-1 JR-CSF) | effect on 10E8-mediated lytic activity [2] | IC50 [3] | serum ALT level (ICR mice; versus PBS) | serum creatinine level (ICR mice; versus PBS) | Kd (rhesus monkey IgG) | t1/2 [4] | AUC(0-t) [4] | Cmax [4] | MRT 0-inf_obs [4] | further results |
| --- | --- | --- | --- | --- | --- | --- | --- | --- | --- | --- | --- | --- | --- | --- | --- | --- | --- | --- | --- | --- | --- |
| CC[C@H](C)[C@H](NC(=O)[C@H](CC(C)C)NC(=O)[C@H](CCC(=O)O)NC(=O)[C@H](CCC(=O)O)NC(=O)[C@@H](NC(=O)[C@H](CCCCN)NC(=O)[C@H](CCCCN)NC(=O)[C@@H](NC(=O)[C@H](Cc1ccc(O)cc1)NC(=O)[C@H](CCC(=O)O)NC(=O)[C@H](CCC(=O)O)NC(=O)[C@@H](NC(=O)[C@H](CCCCN)NC(=O)[C@H](CCCCN)NC(=O)[C@H](CC(=O)O)NC(=O)[C@H](Cc1c[nH]c2ccccc12)NC(=O)[C@H](CCC(=O)O)NC(=O)[C@H](CCC(=O)O)NC(=O)[C@H](Cc1c[nH]c2ccccc12)NC(=O)[C@@H](NC(=O)[C@H](CCSC)NC(=O)[C@@H](NC(=O)[C@@H]1CSSC[C@H](NC(=O)[C@@H](N)CC(=O)O)C(=O)N[C@@H](C)C(=O)N[C@@H](Cc2c[nH]c3ccccc23)C(=O)N[C@@H](Cc2c[nH]cn2)C(=O)N[C@@H](CC(C)C)C(=O)NCC(=O)N[C@@H](CCC(=O)O)C(=O)N[C@@H](CC(C)C)C(=O)N[C@@H](C(C)C)C(=O)N[C@@H](Cc2c[nH]c3ccccc23)C(=O)N1)[C@@H](C)O)[C@@H](C)O)[C@@H](C)CC)[C@@H](C)O)[C@@H](C)CC)C(=O)N[C@@H](CCCCN)C(=O)N[C@@H](CCCCN)C(=O)N[C@@H](CO)C(=O)O [IBP-CP24] (H-DCAWHLGELVWCTMTWEEWDKKIEEYTKKIEELIKKS-OH; disulfide 2-12; N-terminus and C-terminus assumed) | no significant detectable antibodies | 3430 µg·h/mL | 52700 ng/mL | 64.4 h | 2770 min | no significant in vitro cytotoxicity | no significant in vitro cytotoxicity | undetectable | 28.5% | 28.5% | about 2.5 log10 copies/mL | remained about the same | 2.57 nM | no significant difference | no significant difference | 0.946 µM | 44.81 h | 3610.65 µg·h/mL | 76.23 µg/mL | 61.39 h | fold longer half-life than CP24 (in vivo; rhesus monkey plasma, 10 mg/kg i.v.): 26 fold; fold higher AUC 0-t than CP24 (in vivo; rhesus monkeys, 10 mg/kg i.v.): about 18 fold; Tmax (in vivo; rhesus monkeys, single i.v. 10 mg/kg, sandwich ELISA, CP24 n = 2, IBP-CP24 n = 3): 4 h; non-cytotoxic concentration fold higher than IC50 for HIV-1 inhibition (MT-2 cells; 5 μM versus IC50, MT-2 and M7 cells): more than 800 fold; fold more potent than CP24 against HIV-1 Bal [3]: ~2.9 fold; in vivo toxicity, overall (ICR mice; 10 and 100 mg/kg i.p.): no obvious in vivo toxicity; H&E stained sections of liver and kidneys (ICR mice; day 15 post-injection, versus PBS): no pathological abnormality; Tmax [4]: 4 h |
| MTWEEWDKKIEEYTKKIEELIKKS [CP24, reference compound] | no significant detectable antibodies | 180 µg·h/mL | 23600 ng/mL | 4.47 h | 101 min | no in vitro cytotoxicity | no in vitro cytotoxicity | high levels | 50% | 62.5% | about 3.6 log10 copies/mL | remained about the same | 10.1 nM | no significant difference | no significant difference | 1000 µM | 1.37 h | 237.88 µg·h/mL | 77.82 µg/mL | 3.17 h | Tmax (in vivo; [5]): 2 h; Tmax [4]: 2 h |
